We go through 20 molecules from patent US8624034B2, “Fluoro-pyridinone derivatives useful as antibacterial agents” (Pfizer Inc., priority 2011, dated 2014).

≈ marks a conversion by molar mass, not a printed value. Where “and” joins values, the source holds several entries; their conditions need not be identical. Identical values can stand only once. Like-named read-outs stand apart in the source and are kept apart here. Bounds are passed on as bounds.

The target in assay [1] is T1, Pseudomonas aeruginosa LpxC enzyme (Pseudomonas aeruginosa, UniProt P47205).
T1 construct: made in house; host or cells: E. coli
T1 sequence (P47205 1-303): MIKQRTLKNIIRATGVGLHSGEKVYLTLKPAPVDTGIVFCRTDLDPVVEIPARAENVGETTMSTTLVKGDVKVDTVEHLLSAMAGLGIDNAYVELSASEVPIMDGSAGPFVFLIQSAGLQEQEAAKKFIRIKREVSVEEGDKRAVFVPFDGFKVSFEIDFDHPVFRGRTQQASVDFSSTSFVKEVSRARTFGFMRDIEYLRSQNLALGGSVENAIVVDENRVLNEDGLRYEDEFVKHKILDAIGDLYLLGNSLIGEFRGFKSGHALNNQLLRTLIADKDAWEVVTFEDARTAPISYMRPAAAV
Put plainly: IC50 assay, LpxC enzyme from P. aeruginosa (PA LpxC enzyme IC50). The conditions noted are these: LpxC enzyme 0.1 nM, 25° C., 1 hour. The class given is biochemical. An outline of the steps: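 The LpxC reaction ran 1 hour and was stopped with HCl. Substrate-to-product conversion was measured by RapidFire mass spectrometry, and IC50 values were calculated from percent conversion relative to a no-enzyme control.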

Assay [2] concerns Acinetobacter baumannii/haemolyticus, multidrug-resistant clinical isolate (AB-3167). Nature of the assay: MIC determination, AB-3167. The class given is cell-based. As to conditions: Table 3, lower of duplicate values. In outline: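 Broth dilution MIC per CLSI M7-A8, 2-fold drug series, overnight incubation, lowest concentration visibly inhibiting growth against drug-free control. Run in duplicate, lower value reported; duplicates differing >2-fold repeated; QC strains and reference compounds required in range.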

Assay [3] deals with Escherichia coli EC-1: VOGEL, mouse virulent. Nature of the assay: MIC determination, EC-1. The class given is cell-based. As to conditions: for MIC: Escherichia coli, read-out: EC-1 (MIC), Table 3, lower of duplicate values. In outline: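 MIC against mouse-virulent E. coli EC-1 (VOGEL) was determined by CLSI M7-A8 broth dilution with 2-fold drug increments and overnight incubation. The MIC is the lowest concentration with no visible growth versus drug-free control. Tests were run in duplicate and the lower value reported if within 2-fold, with QC organisms and reference drugs in each run.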

In another assay the test system is PA:UC12120. Nature of the assay: MIC determination, PA:UC12120 (Table 3). The class given is cell-based, Pseudomonas aeruginosa. As to conditions: for MIC: Pseudomonas aeruginosa, UC12120, Table 3, lower of duplicate values. An outline of the steps: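 CLSI broth dilution MIC with 2-fold concentration steps, overnight incubation; MIC is the lowest concentration visibly inhibiting growth versus drug-free control. Run in duplicate, lower value reported when within 2-fold; control organisms and reference compounds required within defined ranges.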

The mark [4] stands for this setting: Table 3, lower of duplicate values.

What is called IC50 is the midpoint of a concentration-inhibition curve. As usually defined, the MIC is the least concentration at which growth counts as inhibited. For the molecule `CC(CCn1cc(F)c(-c2cncc(F)c2)cc1=O)(C(=O)NO)S(C)(=O)=O` (stereo not shown) [Example 55, 4-(5,5′-difluoro-2′-oxo-3,4′-bipyridin-1′(2′H)-yl)-N-hydroxy-2-methyl-2-(methylsulfonyl)butanamide], in assay [1] (Table 3, read-out: PA:IC50), the IC50 stood at 66.8 nM. For the same molecule, the minimum inhibitory concentration (MIC) in assay [2] was greater than 64 µg/mL; in assay [3] it was greater than 64 µg/mL; in the assay on PA:UC12120 it was 64 µg/mL (≈ 159 µM).

Regarding `COc1c(F)cc(-c2cc(=O)n(CCC(C)(C(=O)NO)S(C)(=O)=O)cc2F)cc1F` (stereo not shown) [Example 62, 4-[4-(3,5-difluoro-4-methoxyphenyl)-5-fluoro-2-oxopyridin-1(2H)-yl]-N-hydroxy-2-methyl-2-(methylsulfonyl)butanamide], the IC50 in assay [1] (Table 3, read-out: PA:IC50) was 2 nM and 3.1 nM. For the same molecule, the MIC in assay [2] was greater than 64 µg/mL; in assay [3], 4 µg/mL (≈ 8.92 µM); against PA:UC12120, 2 µg/mL (≈ 4.46 µM). The “EC-1 (MIC)” value in assay [3] (setting [4]) was determined as 8 µg/mL. Moreover, the “PA:UC12120 (MIC)” value in the assay with PA:UC12120 (setting [4]) stood at 1 µg/mL.

For the molecule `CC(CCn1cc(F)c(-c2cccc(C#N)c2)cc1=O)(C(=O)NO)S(C)(=O)=O` (stereo not shown) [Example 82, 4-[4-(3-cyanophenyl)-5-fluoro-2-oxopyridin-1(2H)-yl]-N-hydroxy-2-methyl-2-(methylsulfonyl)butanamide], the IC50 in assay [1] (Table 3, read-out: PA:IC50) came out at 13 nM. The values for the MIC (in assay [2]; in assay [3]; against PA:UC12120) were greater than 64 µg/mL, 64 µg/mL (≈ 157 µM) and 8 µg/mL (≈ 19.6 µM), respectively.

For the molecule `CC(CCn1cc(F)c(-c2ccc(F)cc2F)cc1=O)(C(=O)NO)S(C)(=O)=O` (stereo not shown) [Example 97, 4-[4-(2,4-difluorophenyl)-5-fluoro-2-oxopyridin-1(2H)-yl]-N-hydroxy-2-methyl-2-(methylsulfonyl)butanamide], the IC50 in assay [1] (Table 3, read-out: PA:IC50) came to 1.2 nM. Moreover, the MIC in assay [2] is greater than 64 µg/mL; in assay [3] it was 4 µg/mL (≈ 9.56 µM); with PA:UC12120 it was 1 µg/mL (≈ 2.39 µM).

Regarding `CNC(=O)c1ccc(-c2cc(=O)n(CCC(C)(C(=O)NO)S(C)(=O)=O)cc2F)cc1F` (stereo not shown) [Example 52, 2-fluoro-4-{5-fluoro-1-[4-(hydroxyamino)-3-methyl-3-(methylsulfonyl)-4-oxobutyl]-2-oxo-1,2-dihydropyridin-4-yl}-N-methylbenzamide], the IC50 in assay [1] (Table 3, read-out: PA:IC50) amounted to 2.2 nM. The results for the MIC (in assay [2]; in assay [3]; in the assay on PA:UC12120) were greater than 64 µg/mL, 64 µg/mL (≈ 140 µM) and 32 µg/mL (≈ 70 µM), respectively.

On to `CC(CCn1cc(F)c(-c2cnc3ccoc3c2)cc1=O)(C(=O)NO)S(C)(=O)=O` (stereo not shown) [Example 72, 4-(5-fluoro-4-furo[3,2-b]pyridin-6-yl-2-oxopyridin-1(2H)-yl)-N-hydroxy-2-methyl-2-(methylsulfonyl)butanamide], for which the IC50 in assay [1] (Table 3, read-out: PA:IC50) amounted to 34.8 nM. The MIC was greater than 64 µg/mL in assay [2], 64 µg/mL (≈ 151 µM) in assay [3] and 32 µg/mL (≈ 75.6 µM) with PA:UC12120.

`CC(CCn1cc(F)c(-c2ccc(Cl)cc2F)cc1=O)(C(=O)NO)S(C)(=O)=O` (stereo not shown) [Example 66, 4-[4-(4-chloro-2-fluorophenyl)-5-fluoro-2-oxopyridin-1(2H)-yl]-N-hydroxy-2-methyl-2-(methylsulfonyl)butanamide]: the IC50 in assay [1] (Table 3, read-out: PA:IC50) was 0.8 nM. Besides, the MIC in assay [2] is 64 µg/mL (≈ 147 µM); in assay [3], 0.5 µg/mL (≈ 1.15 µM); against PA:UC12120, 0.5 µg/mL (≈ 1.15 µM).

Turning to `Cc1cc(-c2cc(=O)n(CCC(C)(C(=O)NO)S(C)(=O)=O)cc2F)ccc1C#N` (stereo not shown) [Example 114, 4-[4-(4-cyano-3-methylphenyl)-5-fluoro-2-oxopyridin-1(2H)-yl]-N-hydroxy-2-methyl-2-(methylsulfonyl)butanamide], the IC50 in assay [1] (Table 3, read-out: PA:IC50) was 1.3 nM. Further, the MIC was greater than 64 µg/mL in assay [2], 4 µg/mL (≈ 9.49 µM) in assay [3] and 2 µg/mL (≈ 4.75 µM) with PA:UC12120.

On to `COc1cc(-c2cc(=O)n(CCC(C)(C(=O)NO)S(C)(=O)=O)cc2F)ccc1F` (stereo not shown) [Example 67, 4-[5-fluoro-4-(4-fluoro-3-methoxyphenyl)-2-oxopyridin-1(2H)-yl]-N-hydroxy-2-methyl-2-(methylsulfonyl)butanamide], for which the IC50 in assay [1] (Table 3, read-out: PA:IC50) worked out at 4.5 nM. Also, the results for the MIC (in assay [2]; in assay [3]; in the assay with PA:UC12120) were 64 µg/mL (≈ 149 µM), 16 µg/mL (≈ 37.2 µM) and 4 µg/mL (≈ 9.29 µM), respectively.

Turning to `CC(CCn1cc(F)c(-c2ccc(CC#N)cc2)cc1=O)(C(=O)NO)S(C)(=O)=O` (stereo not shown) [Example 91, 4-{4-[4-(cyanomethyl)phenyl]-5-fluoro-2-oxopyridin-1(2H)-yl}-N-hydroxy-2-methyl-2-(methylsulfonyl)butanamide], the half-inhibitory concentration (IC50) in assay [1] (Table 3, read-out: PA:IC50) was 2.3 nM. For the same molecule, the figures for the MIC (in assay [2]; in assay [3]; in the assay on PA:UC12120) were greater than 64 µg/mL, 16 µg/mL (≈ 38 µM) and 4 µg/mL (≈ 9.49 µM), respectively.

With `CC(CCn1cc(F)c(-c2cccc(F)c2F)cc1=O)(C(=O)NO)S(C)(=O)=O` (stereo not shown) [Example 117, 4-[4-(2,3-difluorophenyl)-5-fluoro-2-oxopyridin-1(2H)-yl]-N-hydroxy-2-methyl-2-(methylsulfonyl)butanamide], in assay [1] (Table 3, read-out: PA:IC50), the IC50 was 0.8 nM. Also, the minimum inhibitory concentration (MIC) was greater than 64 µg/mL in assay [2], 2 µg/mL (≈ 4.78 µM) in assay [3] and 0.5 µg/mL (≈ 1.2 µM) in the assay on PA:UC12120.

For the molecule `CC(CCn1cc(F)c(-c2ccc(O)nc2)cc1=O)(C(=O)NO)S(C)(=O)=O` (stereo not shown) [Example 80, 4-(5′-fluoro-6-hydroxy-2′-oxo-3,4′-bipyridin-1′(2′H)-yl)-N-hydroxy-2-methyl-2-(methylsulfonyl)butanamide], the IC50 in assay [1] (Table 3, read-out: PA:IC50) was greater than 100 nM. Besides, the MIC (in assay [2]; in assay [3]; in the assay with PA:UC12120) was greater than 64 µg/mL throughout.

For the molecule `CC(CCn1cc(F)c(-c2ccc(O)cc2)cc1=O)(C(=O)NO)S(C)(=O)=O` (stereo not shown) [Example 53, 4-[5-fluoro-4-(4-hydroxyphenyl)-2-oxopyridin-1(2H)-yl]-N-hydroxy-2-methyl-2-(methylsulfonyl)butanamide], the IC50 in assay [1] (Table 3, read-out: PA:IC50) amounted to 4.2 nM. Moreover, the MIC in assay [2] was greater than 64 µg/mL; in assay [3] it was greater than 64 µg/mL; against PA:UC12120, 64 µg/mL (≈ 161 µM).

For the molecule `CC(CCn1cc(F)c(-c2ccc(Cl)cn2)cc1=O)(C(=O)NO)S(C)(=O)=O` (stereo not shown) [Example 90, 4-(5-chloro-5′-fluoro-2′-oxo-2,4′-bipyridin-1′(2′H)-yl)-N-hydroxy-2-methyl-2-(methylsulfonyl)butanamide], in assay [1] (Table 3, read-out: PA:IC50), the IC50 was found to be 12.5 nM. In addition, the figures for the MIC (in assay [2]; in assay [3]; in the assay on PA:UC12120) were greater than 64 µg/mL, 64 µg/mL (≈ 153 µM) and 16 µg/mL (≈ 38.3 µM), respectively.

In the case of `CC(CCn1cc(F)c(-c2ccc(C#N)cc2)cc1=O)(C(=O)NO)S(C)(=O)=O` (stereo not shown) [Example 124, 4-[4-(4-cyanophenyl)-5-fluoro-2-oxopyridin-1(2H)-yl]-N-hydroxy-2-methyl-2-(methylsulfonyl)butanamide], the IC50 in assay [1] (Table 3, read-out: PA:IC50) worked out at 3.4 nM. Also, the MIC is greater than 64 µg/mL in assay [2], 32 µg/mL (≈ 78.5 µM) in assay [3] and 8 µg/mL (≈ 19.6 µM) in the assay with PA:UC12120.

Regarding `CC(CCn1cc(F)c(-c2ccccc2)cc1=O)(C(=O)NO)S(C)(=O)=O` (stereo not shown) [Example 78, 4-(5-fluoro-2-oxo-4-phenylpyridin-1(2H)-yl)-N-hydroxy-2-methyl-2-(methylsulfonyl)butanamide], in assay [1] (PA:IC50, Table 3), it took 2.8 nM to reach half-maximal inhibition (IC50). In addition, the figures for the MIC (in assay [2]; in assay [3]; against PA:UC12120) were greater than 64 µg/mL, 4 µg/mL (≈ 10.5 µM) and 1 µg/mL (≈ 2.61 µM), respectively.

`CCOc1ccc(-c2cc(=O)n(CCC(C)(C(=O)NO)S(C)(=O)=O)cc2F)cn1` (stereo not shown) [Example 99, 4-(6-ethoxy-5′-fluoro-2′-oxo-3,4′-bipyridin-1′(2′H)-yl)-N-hydroxy-2-methyl-2-(methylsulfonyl)butanamide]: the IC50 in assay [1] (Table 3, read-out: PA:IC50) worked out at 2.5 nM. Besides, the values for the MIC (in assay [2]; in assay [3]; against PA:UC12120) were greater than 64 µg/mL, 2 µg/mL (≈ 4.68 µM) and 2 µg/mL (≈ 4.68 µM), respectively.

On to `CC(CCn1cc(F)c(-c2ccc(Cl)cc2)cc1=O)(C(=O)NO)S(C)(=O)=O` (stereo not shown) [Example 107, 4-[4-(4-chlorophenyl)-5-fluoro-2-oxopyridin-1(2H)-yl]-N-hydroxy-2-methyl-2-(methylsulfonyl)butanamide], for which the IC50 in assay [1] (Table 3, read-out: PA:IC50) came to 1 nM. The MIC was greater than 64 µg/mL in assay [2], 1 µg/mL (≈ 2.4 µM) in assay [3] and 0.25 µg/mL (≈ 0.6 µM) against PA:UC12120.

Take `CC(CCn1cc(F)c(-c2ccc(CCC#N)cc2)cc1=O)(C(=O)NO)S(C)(=O)=O` (stereo not shown) [Example 77, 4-{4-[4-(2-cyanoethyl)phenyl]-5-fluoro-2-oxopyridin-1(2H)-yl}-N-hydroxy-2-methyl-2-(methylsulfonyl)butanamide]: the IC50 in assay [1] (Table 3, read-out: PA:IC50) worked out at 2.6 nM. Also, the MIC was greater than 64 µg/mL in assay [2], 32 µg/mL (≈ 73.5 µM) in assay [3] and 4 µg/mL (≈ 9.19 µM) in the assay with PA:UC12120.

With `CC(CCn1cc(F)c(-c2ccc(C#N)nc2)cc1=O)(C(=O)NO)S(C)(=O)=O` (stereo not shown) [Example 70, 4-(6-cyano-5′-fluoro-2′-oxo-3,4′-bipyridin-1′(2′H)-yl)-N-hydroxy-2-methyl-2-(methylsulfonyl)butanamide], in assay [1] (Table 3, read-out: PA:IC50), the IC50 was determined as 33.3 nM. For the same molecule, the results for the MIC (in assay [2]; in assay [3]; with PA:UC12120) were greater than 64 µg/mL, greater than 64 µg/mL and 64 µg/mL (≈ 157 µM), respectively.
